In patent US20210002231A1 (Centre National de la Recherche Scientifique, priority 2018, published 2021):
Starred links: 1 amine or outer side, 2 acyl side, 3 side chain; linkers in the order of their positions; H or OH if unused. Non-standard residues stand in square brackets, D forms with d. Residues, ends and D or L forms follow the SMILES beside them. Nva(5-(4-Bn-piperidin-1-yl)) = N[C@@H](CCCN1CCC(Cc2ccccc2)CC1)C(=O)O; X5 = O=C1[C@@H](N[*:1])Cc2ccccc2CN1CCCC(=O)[*:2]; X1 = O=C1[C@@H](N[*:1])Cc2ccccc2CN1CCC(=O)[*:2]; Tic(7-OH) = O=C(O)[C@@H]1Cc2ccc(O)cc2CN1; Dmt = Cc1cc(O)cc(C)c1C[C@H](N)C(=O)O; dOrn = NCCC[C@@H](N)C(=O)O; dNMeA = CN[C@H](C)C(=O)O; Nlys = NCCCCNCC(=O)O; βAla = NCCC(=O)O

Tests used:
human MOPr [1] = molecular target: T1, human MOPr (Homo sapiens, UniProt P35372); experiment: cell-based; assay type: cell-based; parameters: expressed in transfected cells; HEK293-Glo20F cells (cAMP); conditions: for Emax: read-out: MOPr (cAMP) Emax; for MOPr-induced G protein activation: in words
Description: Stimulation by endogenous RF-amide peptides or test compounds for [^35S]-GTPγS binding to membranes from CHO cells expressing human NPFF1R or NPFF2R, were examined as reported. 1.6. Glo-Sensor cAMP Assay cAMP accumulation assay was essentially done as described with the following modifications: HEK293 cells stably expressing cAMP Glosensor-20F were used, with or without additional stable expression of each individual opioid receptor or NPFF1R. The cAMP responses were measured in presence of D-luciferin (1 mM).

human MOPr [2] = molecular target: T1, human MOPr; experiment: BRET1 β-arrestin-2 recruitment assay; assay type: cell-based; parameters: expressed in transfected cells; host or cells: HEK293 cells stably expressing eYFP-β-arrestin-2, transiently transfected with the Rluc8-MOP plasmid; conditions: for Emax: read-out: MOPr (β-arrestin-2) Emax; for β-arrestin-2 recruitment: in words;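 as to Emax: Emax relative to maximal DAMGO-induced BRET as 100%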;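 as to MOPr (β-arrestin-2) Emax: Emax relative to maximal DAMGO-induced BRET as 100%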
Description: Peak response amplitudes were normalized to basal and maximal (cells permeabilized with 20 μM digitonin) fluorescence levels. 1.8. β-Arrestin-2 recruitment assay The β-arrestin-2 recruitment assay was performed as described [34; 45] with minor modifications. Briefly, two days prior the experiment, HEK293 cells stably expressing eYFP-tagged β-arrestin-2 were transfected with the plasmid encoding Rluc8-MOP receptor. β-Arrestin-2 recruitment was measured at 37° C. in presence of 5 μM Coelenterazine H, 5 min after agonist addition.

[3] = Table 3B, read-out: MOPr (cAMP) EC50
[4] = Table 3B, — = non-detectable recruitment, read-out: MOPr (β-arrestin-2) EC50
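For MOPr (cAMP) Emax in this document: Emax relative to DAMGO as 100%.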

T1 sequence (P35372 whole entry): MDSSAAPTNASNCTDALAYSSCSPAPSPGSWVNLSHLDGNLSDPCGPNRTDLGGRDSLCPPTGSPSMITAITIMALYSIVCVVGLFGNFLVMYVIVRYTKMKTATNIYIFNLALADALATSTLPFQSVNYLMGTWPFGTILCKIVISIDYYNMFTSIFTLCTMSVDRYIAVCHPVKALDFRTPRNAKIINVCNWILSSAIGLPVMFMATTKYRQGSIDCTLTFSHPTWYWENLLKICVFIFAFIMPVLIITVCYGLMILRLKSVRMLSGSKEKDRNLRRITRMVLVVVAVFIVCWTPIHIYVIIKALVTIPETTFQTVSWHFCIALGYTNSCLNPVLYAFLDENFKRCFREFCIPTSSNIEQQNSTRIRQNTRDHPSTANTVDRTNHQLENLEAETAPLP

Row | Compound | EC50 (human MOPr [1]; [3]) [µM] | Emax (human MOPr [1]) [%] | EC50 (human MOPr [2]; [4]) [µM] | Emax (human MOPr [2]) [%] | MOPr-induced G protein activation (human MOPr [1]) | β-arrestin-2 recruitment (human MOPr [2]) | EC50 (human MOPr [1]; MOPr (cAMP) EC50, Table 3B) [µM] | EC50 (human MOPr [2]) [µM]
1 | Cc1cc(O)cc(C)c1C[C@H](N)C(=O)N(C)[C@H](C)C(=O)N[C@H]1Cc2ccccc2CN(CCC(=O)N[C@@H](CCCN2CCC(Cc3ccccc3)CC2)C(=O)N[C@@H](Cc2ccccc2)C(N)=O)C1=O [DP0007, H-Dmt-N(Me)-D-Ala-Aba-β-Ala-Bpa-Phe-NH2] (H-[Dmt][dNMeA][X1][Nva(5-(4-Bn-piperidin-1-yl))]F-NH2) | 0.04 ± 0.02 | 64 ± 6 | 0.214 | 12 |  |  |  | 
2 | Cc1cc(O)cc(C)c1C[C@H](N)C(=O)N1CCC[C@@H]1C(=O)N[C@H]1Cc2ccccc2CN(CCC(=O)N[C@@H](CCCN2CCC(Cc3ccccc3)CC2)C(=O)N[C@@H](Cc2ccccc2)C(N)=O)C1=O [DP0008, H-Dmt-D-Pro-Aba-β-Ala-Bpa-Phe-NH2] (H-[Dmt][dP][X1][Nva(5-(4-Bn-piperidin-1-yl))]F-NH2) | 0.0106 ± 0.0013 | 53 ± 0.7 |  |  | significant | non-detectable |  | 
3 | Cc1cc(O)cc(C)c1C[C@H](N)C(=O)N[C@H](CCCN1CCC(Cc2ccccc2)CC1)C(=O)N[C@H]1Cc2ccccc2CN(CCC(=O)N[C@@H](CCCN2CCC(Cc3ccccc3)CC2)C(=O)N[C@@H](Cc2ccccc2)C(N)=O)C1=O [DP0009, H-Dmt-D-Bpa-Aba-β-Ala-Bpa-Phe-NH2] | 0.8 | 35 |  |  |  |  |  | 
4 | Cc1cc(O)cc(C)c1C[C@H](N)C(=O)N[C@H](CCCNC(=N)N)C(=O)N[C@H]1Cc2ccccc2CN(CCC(=O)N[C@@H](CCCN2CCC(Cc3ccccc3)CC2)C(=O)N[C@H](Cc2ccccc2)C(N)=O)C1=O [DP0015, H-Dmt-D-Arg-Aba-β-Ala-Bpa-D-Phe-NH2] | 0.0059 ± 0.0003 | 109 ± 0.4 | 0.08 | 59 |  |  |  | 
5 | Cc1cc(O)cc(C)c1C[C@H](N)C(=O)N[C@H](CCCNC(=N)N)C(=O)N[C@H]1Cc2ccccc2CN(CCC(=O)N[C@@H](CCCN2CCC(Cc3ccccc3)CC2)C(=O)N[C@@H](Cc2ccccc2)C(=O)NCCC(N)=O)C1=O [DP0016, H-Dmt-D-Arg-Aba-β-Ala-Bpa-Phe-β-Ala-NH2] (H-[Dmt][dR][X1][Nva(5-(4-Bn-piperidin-1-yl))]F[βAla]-NH2) | 0.019 | 95 | 0.399 | 31 |  |  |  | 
6 | Cc1cc(O)cc(C)c1C[C@H](N)C(=O)N(C)[C@H](C)C(=O)N[C@H]1Cc2ccccc2CN(CCCC(=O)N[C@@H](CCCN2CCC(Cc3ccccc3)CC2)C(=O)N[C@@H](Cc2ccccc2)C(N)=O)C1=O [DP0017, H-Dmt-N(Me)-D-Ala-AbaGABA-Bpa-Phe-NH2] (H-[Dmt][dNMeA][X5][Nva(5-(4-Bn-piperidin-1-yl))]F-NH2) | 0.0141 | 70 |  |  | significant | non-detectable |  | 
7 | Cc1cc(O)cc(C)c1C[C@H](N)C(=O)N[C@H](CCCNC(=N)N)C(=O)N[C@H]1Cc2c(ccc3ccccc23)CN(CC(=O)N[C@@H](CCCN2CCC(Cc3ccccc3)CC2)C(=O)N[C@@H](Cc2c[nH]c3ccccc23)C(N)=O)C1=O [DP0023, H-Dmt-D-Arg-1AnaGly-Bpa-Trp-NH2] |  | 61 |  |  | significant | non-detectable | 0.0091 | 
8 | Cc1cc(O)cc(C)c1C[C@H](N)C(=O)N[C@H](CCCNC(=N)N)C(=O)N[C@@H](Cc1ccccc1)C(=O)N(C)CC(=O)N[C@@H](CCCN1CCC(Cc2ccccc2)CC1)C(=O)N[C@@H](Cc1ccccc1)C(N)=O [DP0024, H-Dmt-D-Arg-Phe-N(Me)Gly-Bpa-Phe-NH2] (HELM PEPTIDE1{[Cc1cc(O)cc(C)c1C[C@H](N)C(=O)[*:2]].[dR].F.[Sar].[O=C([C@H](CCCN1CCC(Cc2ccccc2)CC1)N[*:1])[*:2]].F.[am]}$$$$V2.0) | 0.0099 | 97 | ~0.05 | ~95 |  |  |  | 
9 | Cc1cc(O)cc(C)c1C[C@H](N)C(=O)N[C@H](CCCNC(=N)N)C(=O)N[C@@H](Cc1ccccc1)C(=O)N(C)CC(=O)N[C@@H](CCCN1CCC(Cc2ccccc2)CC1)C(=O)N[C@H](C(N)=O)C(C)C [DP0025, H-Dmt-D-Arg-Phe-N(Me)Gly-Bpa-Val-NH2] (HELM PEPTIDE1{[Cc1cc(O)cc(C)c1C[C@H](N)C(=O)[*:2]].[dR].F.[Sar].[O=C([C@H](CCCN1CCC(Cc2ccccc2)CC1)N[*:1])[*:2]].V.[am]}$$$$V2.0) | 0.0071 | 110 | ~0.05 | ~114 |  |  |  | 
10 | Cc1cc(O)cc(C)c1C[C@H](N)C(=O)N[C@H](CCCNC(=N)N)C(=O)N[C@H]1Cc2ccccc2CN(CCC(=O)N[C@@H](CCCN2CCc3ccccc3C2)C(=O)N[C@@H](Cc2ccccc2)C(N)=O)C1=O [DP0026, H-Dmt-D-Arg-Aba-β-Ala-THIQ-Phe-NH2] | 0.0024 | 98 |  | ~50 |  |  |  | 
11 | Cc1cc(O)cc(C)c1C[C@H](N)C(=O)N[C@H](CCCNC(=N)N)C(=O)N[C@H]1Cc2ccccc2CN(CCC(=O)N[C@H](CCCN2CCC(Cc3ccccc3)CC2)C(=O)N[C@@H](Cc2ccccc2)C(N)=O)C1=O [DP0027, H-Dmt-D-Arg-Aba-β-Ala-D-Bpa-Phe-NH2] | 0.0136 | 95 | ~0.18 | ~68 |  |  |  | 
12 | Cc1cc(O)cc(C)c1C[C@H](N)C(=O)N[C@H](CCCN)C(=O)N[C@H]1Cc2ccccc2CN(CCC(=O)N[C@@H](CCCN2CCC(Cc3ccccc3)CC2)C(=O)N[C@@H](Cc2ccccc2)C(N)=O)C1=O [DP0028, H-Dmt-D-Orn-Aba-β-Ala-Bpa-Phe-NH2] (H-[Dmt][dOrn][X1][Nva(5-(4-Bn-piperidin-1-yl))]F-NH2) | 0.0404 | 75 |  |  | significant | non-detectable |  | 
13 | Cc1cc(O)cc(C)c1C[C@H](N)C(=O)N[C@H](CCCCN)C(=O)N[C@H]1Cc2ccccc2CN(CCC(=O)N[C@@H](CCCN2CCC(Cc3ccccc3)CC2)C(=O)N[C@@H](Cc2ccccc2)C(N)=O)C1=O [DP0029, H-Dmt-D-Lys-Aba-β-Ala-Bpa-Phe-NH2] (H-[Dmt][dK][X1][Nva(5-(4-Bn-piperidin-1-yl))]F-NH2) | 0.0257 | 72 |  |  | significant | non-detectable |  | 
14 | Cc1cc(O)cc(C)c1C[C@H](N)C(=O)N[C@H](CCCNC(=N)N)C(=O)N[C@@H](Cc1ccccc1)C(=O)N(C)[C@H](C)C(=O)N[C@@H](CCCN1CCC(Cc2ccccc2)CC1)C(=O)N[C@@H](Cc1ccccc1)C(N)=O [DP0030, H-Dmt-D-Arg-Phe-N(Me)-D-Ala-Bpa-Phe-NH2] (H-[Dmt][dR]F[dNMeA][Nva(5-(4-Bn-piperidin-1-yl))]F-NH2) | 0.0277 | 111 | ~0.15 | ~85 |  |  |  | 
15 | N=C(N)NCCC[C@@H](NC(=O)[C@@H]1Cc2ccc(O)cc2CN1)C(=O)N[C@H]1Cc2ccccc2CN(CCC(=O)N[C@@H](CCCN2CCC(Cc3ccccc3)CC2)C(=O)N[C@@H](Cc2ccccc2)C(N)=O)C1=O [DP0031, 7-OH-Tic-D-Arg-Aba-β-Ala-Bpa-Phe-NH2] (H-[Tic(7-OH)][dR][X1][Nva(5-(4-Bn-piperidin-1-yl))]F-NH2; N-terminus assumed) | 3.6 | 46 |  | ~40 |  |  |  | > 0.5
16 | Cc1cc(O)cc(C)c1C[C@H](N)C(=O)N(CCCCN)CC(=O)N[C@H]1Cc2ccccc2CN(CCC(=O)N[C@@H](CCCN2CCC(Cc3ccccc3)CC2)C(=O)N[C@@H](Cc2ccccc2)C(N)=O)C1=O [DP0035, H-Dmt-Nlys-Aba-β-Ala-Bpa-Phe-NH2] (H-[Dmt][Nlys][X1][Nva(5-(4-Bn-piperidin-1-yl))]F-NH2) | 0.0484 | 15 |  |  |  |  |  | 
